Reference: PubChem BioAssay (NCI)
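Exposure lasted 48 hours, with cells grown in 96-well plates and compounds tested at five concentrations. GI50 is the concentration that inhibits growth by half. TGI: concentration producing complete growth inhibition.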

Experiments:
Assay in all cases: NCI anticancer screen, dose series, 48 h
[1] = tested on: HOP-18 NSCLC
[2] = tested on: LOX IMVI melanoma
[3] = tested on: RPMI-8226 leukemia
[4] = tested on: HCC-2998 colon
[5] = tested on: UACC-257 melanoma
[6] = tested on: SW-620 colon
[7] = tested on: OVCAR-4 ovarian
[8] = tested on: MALME-3M melanoma
[9] = tested on: K-562 leukemia
[10] = tested on: OVCAR-5 ovarian
[11] = tested on: SNB-78 CNS
[12] = tested on: UACC-62 melanoma
[13] = tested on: DMS 273 small cell lung
[14] = tested on: LXFL 529 NSCLC
[15] = tested on: EKVX NSCLC
[16] = tested on: HCT-116 colon
[17] = tested on: SNB-19 CNS
[18] = tested on: UO-31 renal
[19] = tested on: ACHN renal
[20] = tested on: XF 498 CNS
[21] = tested on: HT29 colon
[22] = tested on: A549 NSCLC
[23] = tested on: CAKI-1 renal
[24] = tested on: 786-0 renal
[25] = tested on: A498 renal
[26] = tested on: HOP-92 NSCLC
[27] = tested on: HL-60(TB) leukemia
[28] = tested on: SF-295 CNS
[29] = tested on: SF-268 CNS
[30] = tested on: HCT-15 colon
[31] = tested on: IGROV1 ovarian
[32] = tested on: HOP-62 NSCLC
[33] = tested on: TK-10 renal
[34] = tested on: M14 melanoma
[35] = tested on: DLD-1 colon
[36] = tested on: SK-OV-3 ovarian
[37] = tested on: M19-MEL melanoma
[38] = tested on: SK-MEL-5 melanoma
[39] = tested on: SR leukemia
[40] = tested on: NCI-H226 lung
[41] = tested on: KM20L2 colon
[42] = tested on: SNB-75 CNS
[43] = tested on: CCRF-CEM leukemia
[44] = tested on: DMS 114 small cell lung
[45] = tested on: KM12 colon
[46] = tested on: SF-539 CNS
[47] = tested on: U251 CNS
[48] = tested on: COLO 205 colon
[49] = tested on: NCI-H460 lung
[50] = tested on: OVCAR-3 ovarian
[51] = tested on: SK-MEL-28 melanoma
[52] = tested on: SK-MEL-2 melanoma
[53] = tested on: MOLT-4 leukemia
[54] = tested on: NCI-H23 lung
[55] = tested on: SN12C renal
[56] = tested on: OVCAR-8 ovarian

`COc1cccc(/C=N/[N-]C(=O)c2ccncc2)c1[O-].[Cu+2].[OH3+]` gave a GI50 [1] greater than 100 µM, a TGI [1] greater than 100 µM and a GI50 [2] greater than 100 µM. For the same compound, the TGI [2] was greater than 100 µM, the GI50 [3] was greater than 100 µM and the TGI [3] was greater than 100 µM. The GI50 [4] was greater than 100 µM, the TGI [4] was greater than 100 µM and the GI50 [5] was greater than 100 µM. For the same compound, the TGI [5] was greater than 100 µM, the GI50 [6] was 48.2 µM and the TGI [6] was greater than 100 µM. It also gave a GI50 [7] of 78.6 µM, a TGI [7] greater than 100 µM and a GI50 [8] greater than 100 µM. It also gave a TGI [8] greater than 100 µM, a GI50 [9] of 33.6 µM and a TGI [9] greater than 100 µM. It also gave a GI50 [10] greater than 100 µM, a TGI [10] greater than 100 µM and a GI50 [11] greater than 100 µM. The TGI [11] was greater than 100 µM, the GI50 [12] was 28.9 µM and the TGI [12] was greater than 100 µM. It also gave a GI50 [13] of 48.2 µM, a TGI [13] greater than 100 µM and a GI50 [14] of 57.7 µM. For the same compound, the TGI [14] was greater than 100 µM, the GI50 [15] was 58 µM and the TGI [15] was greater than 100 µM. For the same compound, the GI50 [16] was 23.8 µM, the TGI [16] was 93.9 µM and the GI50 [17] was greater than 100 µM. For the same compound, the TGI [17] was greater than 100 µM, the GI50 [18] was 45.5 µM and the TGI [18] was greater than 100 µM. For the same compound, the GI50 [19] was 90.8 µM, the TGI [19] was greater than 100 µM and the GI50 [20] was greater than 100 µM. It also gave a TGI [20] greater than 100 µM, a GI50 [21] of 43.8 µM and a TGI [21] greater than 100 µM. The GI50 [22] was 53.7 µM, the TGI [22] was greater than 100 µM and the GI50 [23] was greater than 100 µM. It also gave a TGI [23] greater than 100 µM, a GI50 [24] of 63.4 µM and a TGI [24] greater than 100 µM. It also gave a GI50 [25] of 58.4 µM, a TGI [25] greater than 100 µM and a GI50 [26] greater than 100 µM. The TGI [26] was greater than 100 µM, the GI50 [27] was 23 µM and the TGI [27] was 53.7 µM. It also gave a GI50 [28] greater than 100 µM, a TGI [28] greater than 100 µM and a GI50 [29] of 28 µM. For the same compound, the TGI [29] was greater than 100 µM, the GI50 [30] was 62.8 µM and the TGI [30] was greater than 100 µM. For the same compound, the GI50 [31] was 38.7 µM, the TGI [31] was greater than 100 µM and the GI50 [32] was 15.7 µM. It also gave a TGI [32] of 86.4 µM, a GI50 [33] greater than 100 µM and a TGI [33] greater than 100 µM. It also gave a GI50 [34] of 61.3 µM, a TGI [34] greater than 100 µM and a GI50 [35] of 52.6 µM. The TGI [35] was greater than 100 µM, the GI50 [36] was 15.1 µM and the TGI [36] was 82 µM. The GI50 [37] was greater than 100 µM, the TGI [37] was greater than 100 µM and the GI50 [38] was 74.3 µM. For the same compound, the TGI [38] was greater than 100 µM, the GI50 [39] was 26.9 µM and the TGI [39] was 92 µM. It also gave a GI50 [40] greater than 100 µM, a TGI [40] greater than 100 µM and a GI50 [41] of 47.9 µM. The TGI [41] was greater than 100 µM, the GI50 [42] was 28.6 µM and the TGI [42] was greater than 100 µM. For the same compound, the GI50 [43] was 27.9 µM, the TGI [43] was greater than 100 µM and the GI50 [44] was 71.1 µM. For the same compound, the TGI [44] was greater than 100 µM, the GI50 [45] was greater than 100 µM and the TGI [45] was greater than 100 µM. It also gave a GI50 [46] of 18.2 µM, a TGI [46] of 76.8 µM and a GI50 [47] of 20.5 µM. The TGI [47] was greater than 100 µM, the GI50 [48] was 78.4 µM and the TGI [48] was greater than 100 µM. The GI50 [49] was 28.7 µM, the TGI [49] was greater than 100 µM and the GI50 [50] was 33.7 µM. For the same compound, the TGI [50] was greater than 100 µM, the GI50 [51] was greater than 100 µM and the TGI [51] was greater than 100 µM. For the same compound, the GI50 [52] was greater than 100 µM, the TGI [52] was greater than 100 µM and the GI50 [53] was 35.2 µM. It also gave a TGI [53] greater than 100 µM, a GI50 [54] of 34.1 µM and a TGI [54] greater than 100 µM. The GI50 [55] was 49.7 µM, the TGI [55] was greater than 100 µM and the GI50 [56] was 22 µM. For the same compound, the TGI [56] was greater than 100 µM.
